Experimental data taken from ChEMBL document CHEMBL4483862, “Open-source discovery of chemical leads for next-generation chemoprotective antimalarials” (2018).

Tested on: Plasmodium berghei
Experiment: Luciferase/luciferin-expressing antifolate-resistant parasites were used to infect a culture of HepG2 cells that were pre-incubated with compounds. Infected hepatocytes emit light due to the luciferase reaction. Assay results are presented as the percent inhibition of light emission compared to control. […]
Format: functional
Details: sporozoite; for IC50: read-out: LUCIFERASE INFECTION ASSAY - IC50; for IC90: read-out: LUCIFERASE INFECTION ASSAY - IC90

Compound	IC50 [µM]	IC90 [µM]
COC(=O)c1cccc(OC(=O)/C=C/c2ccc(-c3ccccc3)s2)c1	> 10	> 10
O=C(COC(=O)c1cc(-c2ccccc2)c(N2CCOCC2)s1)c1ccc2c(c1)OCCO2	> 10	> 10
Cc1nc2ccccn2c1C(=O)N/N=C/c1c(-c2ccccc2)n(-c2ccccc2)c2ccccc12	> 10	> 10
COc1ccc2nc(N(Cc3ccccc3)C(=O)C3Cc4ccccc4C(=O)O3)sc2c1 (stereo not given)	> 10	> 10
NS(=O)(=O)c1ccc(CCNC(=O)COC(=O)c2ccc3[nH]c4c(c3c2)CCCC4)cc1	> 10	> 10
Cc1cc2nc(Oc3ccc4c(c3)CCC4)c3ccccc3n2n1	> 10	> 10
COc1ccc(-n2nnnc2SCC(=O)Nc2cc(-c3ccc(C)cc3)nn2-c2ccccc2)cc1	> 10	> 10
CC1CCN(Cc2nc3scc(-c4ccccc4)c3c(=O)n2CC(=O)N2CCc3ccccc32)CC1	> 10	> 10
Cc1ccc(-c2cc3nc(SCCOc4ccccc4F)n(Cc4ccccc4)c(=O)c3s2)cc1	> 10	> 10
CCOC(=O)c1c(NC(=O)COC(=O)c2ccccc2Nc2cccc(C)c2C)sc(C(=O)N(C)C)c1C	> 10	> 10
COc1ccc(-c2nn(-c3ccccc3)cc2CN(Cc2ccccc2)C(=O)c2ccco2)cc1	> 10	> 10
CC(C)(C)C(=O)/C=c1\[nH]c(=O)/c(=C\c2ccc(Oc3ccc(F)cc3)c([N+](=O)[O-])c2)s1	> 10	> 10
CS(=O)(=O)N1CCc2cc(C(=O)CSc3nc(-c4cccs4)nc4ccccc34)ccc21	> 10	> 10
Cc1noc(C)c1COc1ccc(C(=O)OCC(=O)N(C)C2(C#N)CCCCC2)cc1	> 10	> 10
COc1ccc(NC(=O)C(OC(=O)c2ccccc2SCC(=O)Nc2c(C)n(C)n(-c3ccccc3)c2=O)c2ccccc2)cc1Cl (stereo not given)	> 10	> 10
Cc1cc(=O)c(C(=O)Nc2cc(C(F)(F)F)ccc2N2CCCCC2)nn1-c1ccccc1Cl	> 10	> 10
c1ccc(-c2csc3ncnc(Sc4nnc(C5COc6ccccc6O5)n4-c4ccccc4)c23)cc1 (stereo not given)	> 10	> 10
O=C(Cn1ncc(Cl)c(Cl)c1=O)Nc1ccc(OCc2ccccc2)cc1	> 10	> 10
Cc1ccc(S(=O)(=O)N2CCC(C(=O)Nc3nnc(-c4ccc(Cl)cc4)o3)CC2)c(C)c1	> 10	> 10
Cc1cc(C)c(NC(=O)c2cc(-c3ccccc3)nn2-c2ccccc2)c(C)c1	> 10	> 10
CC1CCN(Cc2nc(Oc3cccc4c3OC(C)(C)C4)c3c(-c4ccccc4)csc3n2)CC1	> 10	> 10
CC1CCc2c(sc3nc(CN4CCOCC4)nc(Oc4ccc(Cl)c5cccnc45)c23)C1 (stereo not given)	> 10	> 10
COc1cccc(C(CNc2nc(C)nc3sc4c(c23)CCCCC4)N2CCCC2)c1 (stereo not given)	> 10	> 10
Cc1ccc(N(Cc2ccccc2)C(=O)C2CCN(S(=O)(=O)c3c(Cl)cccc3Cl)CC2)cc1	> 10	> 10
COc1cc(/C=N/Nc2nc(Cl)c(Cl)cc2Cl)ccc1OCC(=O)N1CC(C)OC(C)C1 (stereo not given)	> 10	> 10
Cc1cc(C(=O)N/N=C/c2ccc(Sc3ncccn3)c([N+](=O)[O-])c2)c(C)n1-c1ccccc1	> 10	> 10
Cc1nn(Cc2ccccc2Cl)c(C)c1C(=O)OCC(=O)N1CCN(c2ccccc2)CC1	> 10	> 10
O=C(N/N=C/c1sc(Nc2ccccc2)nc1Cl)c1cc(-c2ccncc2)nc2ccccc12	> 10	> 10

Compound	IC50 [µM]	IC90 [µM]
CC(OC(=O)/C=C/c1ccc2ccccc2n1)C(=O)NC1CCCc2ccccc21 (stereo not given)	> 10	> 10
COc1ccc(Cc2nnc(SCC(=O)/C(C#N)=C(\C)N)n2-c2ccc(Oc3ccccc3)cc2)cc1OC	> 10	> 10
CS(=O)(=O)c1ccc(Oc2ccc(-n3ccnc3)cc2)c([N+](=O)[O-])c1	> 10	> 10
O=S(=O)(NCCCCOc1ccc(Cl)cc1)c1ccc(S(=O)(=O)N2CCOCC2)cc1	9.97	> 10
CCCCN(C(=O)c1cccnc1SC)c1nc2ccc(C)cc2s1	> 10	> 10
Cc1ccc(S(=O)(=O)N/N=C/c2c(C)nn(-c3ccccc3)c2C)cc1[N+](=O)[O-]	> 10	> 10
O=C(CN1CC=C(c2ccccc2)CC1)NC(c1ccccc1)c1ccccc1	> 10	> 10
Cc1csc2nc(COC(=O)c3ccc(-c4nc5ccccc5s4)o3)cc(=O)n12	> 10	> 10
Cc1c(C(=O)OCC(=O)c2cc(C)n(-c3cccc(F)c3)c2C)sc2nc3n(c(=O)c12)CCC3	> 10	> 10
CN(CCCc1[nH]nc(N)c1C#N)c1nc(-c2ccccn2)nc2scc(-c3ccccc3)c12	7.69	> 10
O=C(COC(=O)c1ccccc1NCCO)NC(=O)NCc1ccco1	> 10	> 10
Cc1nnnn1/C(=C\c1ccccc1)C(=O)N(Cc1cccs1)c1ccc2c(c1)OCCO2	> 10	> 10
CCN(CC)Cc1ccc(CNC(=O)c2oc3ccccc3c2CSc2nnc[nH]2)cc1	2.48	> 10
CCCCn1nc(C(=O)Nc2nc(-c3ccc(CCNC(C)=O)cc3)cs2)c2ccccc2c1=O	> 10	> 10
COCCCn1c(Sc2ncnc3sc4c(c23)CCC4)nc2sc3c(c2c1=O)CCC3	> 10	> 10
CCOc1cc(C(=O)N(CC2CCCO2)C2CCS(=O)(=O)C2)cc(OCC)c1OCC (stereo not given)	> 10	> 10
CC(C)(C)c1ccc(NC(=O)CSc2ccc(S(=O)(=O)N3CCN(Cc4ccccc4)CC3)cn2)cc1	4.44	9.27
CCCn1c(NC(=O)CCN(c2ccc(C)cc2)S(=O)(=O)c2ccc(C)cc2)nc2ccccc21	> 10	> 10
C/C(N)=C(/C#N)C(=O)CSc1nnc(-c2ccc(C(C)(C)C)cc2)n1-c1cccc(Cl)c1Cl	> 10	> 10
Cc1ccc2c(COC(=O)[C@@H]3CCCN3C(=O)c3cccs3)cc(=O)oc2c1	> 10	> 10
Cc1csc(C(C#N)C(=O)COC(=O)c2ccccc2SCC(=O)N(C)C)n1 (stereo not given)	> 10	> 10
Cc1cc2oc(=O)cc(COC(=O)c3cccc(S(=O)(=O)N(Cc4ccccc4)c4cccc(C(F)(F)F)c4)c3)c2cc1C(C)C	> 10	> 10
Cc1noc(C)c1CSc1ncccc1C(=O)N(C)c1ccc2ccccc2c1	> 10	> 10
Cc1cccc(C=C(C(=O)Nc2ccccc2Cl)C(=O)Nc2ccccc2Cl)c1	> 10	> 10
Cc1ccc(Sc2ccc(/C=c3\s/c(=C\C(=O)c4ccc(Cl)cc4)[nH]c3=O)cc2[N+](=O)[O-])cc1	> 10	> 10
COc1cc([N+](=O)[O-])ccc1NC(=O)CN1CCc2ccccc2C1	> 10	> 10
Cc1c(/C=N/NC(=O)c2ccccc2)c(Cl)n(C)c(=O)c1C#N	> 10	> 10
